Patent US20240181000A1, “LGG-DERIVED PEPTIDES AND METHODS OF USE THEREOF” (Ohio State Innovation Foundation, priority 2021, published 2024)
Read-outs that look alike come from different tables or passages of the source. No end group written: not given here.

What was measured:
commensal bacteria = test: Peptide activity against commensal bacteria; format: cell-based; settings: at MICs
Protocol: Peptide activity against commensal bacteria: Peptides 1, 2, and 4 were used to assess if they would inhibit commensal microbes. The commensal bacteria used along with their culture requirements are described in Table 25. Peptides at their MICs were added to 100 μL of known concentration of commensal bacteria and incubated under their required conditions. OD600 of cultures was measured to assess the effect of peptides on bacterial growth.

Biofilm embedded ST = test: MBEC Assay; format: cell-based, Salmonella enterica; settings: at MICs; untreated 6.46 ± 0.09
Protocol: (§1) Peptides effect against biofilm embedded Salmonella: To analyze the ability of the peptides (P1, P2, and P4) to retain their inhibitory characteristics against biofilm protected Salmonella, Innovotech's MBEC Assay® (Innovotech Inc., AB, Canada) was conducted as previously detailed. Initially, 150 μL of 5×10^7 CFU/mL adjusted ST or SE suspension in LB media was aliquoted into the wells of MBEC inoculator plates containing polystyrene pegs and incubated for 36 h on a rocker platform at 37° C. to allow the biofilm formation. After biofilm formation, the pegs were washed to remove loosely adherent planktonic bacteria and transferred to a new 96-well plate containing peptides at MICs, with relevant controls, in 200 μL 25% LB media. The diluted LB media was used because it allows for slow bacterial growth to promote biofilm formation due to limited nutrients. The plate was incubated for 18 h at 37° C. with rotation at 150 rpm. Sterile media and DMSO were used as controls. Following incubation, the MICs of peptides in challenge plate were recorded. The pegs were transferred to new 96-well plate containing PBS and sonicated for 30 minutes to disrupt the biofilm. The sonicated suspensions were then ten-fold serially diluted and plated on LB agar plates to enumerate the biofilm protected bacteria and determine the minimum biofilm eradication concentration (MBEC) of peptides. Three independent experiments were conducted to ensure accuracy.

Biofilm embedded SE = test: MBEC Assay; format: cell-based, Salmonella enterica; settings: at MICs; untreated 6.77 ± 0.02
Protocol: as §1

[1] = test system: Salmonella enterica subsp. enterica serovar Typhimurium LT2 (ST); test: Anti-Salmonella growth inhibition and MIC; format: cell-based; settings: No treatment
Protocol: Primary screening for anti-Salmonella activity of peptides: The inhibitory effect of the peptides was accessed as described previously. ST was grown overnight and adjusted to 5×10^5 CFU/mL; 100 microliters of this measured concentration was placed into the wells of a 96 well plate. Peptides 1-6 were added to the well at 12 mM concentration and plate was incubated in a TECAN Sunrise™ absorbance microplate reader at 37° C. with kinetic absorbance measurements taken every 30 minutes for 12 h. The growth inhibitory activity was calculated with the formula (OD600 DMSO treated well-OD600 peptide treated well)/OD600 DMSO treated well×100%. DMSO treated, Salmonella challenged wells and sterile media with no Salmonella challenge were used as controls. This experiment was done twice to ensure the accuracy and reproducibility of the results.
MIC was determined by selecting peptide concentration at which there is no increased growth (no increase in OD), given indication of no ST growth. An independent repeat experiment was conducted.
Heat and protease tolerance of peptides: P1, P2, and P4 were heated for 6 minutes at 86° C. or treated with protease proteinase K, 200 μg/mL at 50° C. for 30 minutes. After which, the treated and/or heated peptides at their respective MICs were evaluated in the inhibition assay with Salmonella. The protocol from above was repeated in the Tecan with the same controls. […]

APEC O78 = format: cell-based, E. coli
Protocol: Anti-APEC activity determination: The anti-APEC activity of peptides was determined in LB broth following CLSI guidelines. Briefly, overnight grown APEC O78 was adjusted to 5×10^5 CFU/mL concentration in fresh LB media. One-hundred microliters of APEC suspension was aliquoted into the wells of the 96-well plate. Peptides were added to the wells at 6 mM and 12 mM concentrations and incubated at 37° C. in TECAN Sunrise™ absorbance microplate reader with kinetic absorbance measurement set at every 30 mins for 12 h. Sterile media and DMSO (solvent) were used as controls. The growth inhibitory activity of the peptides against APEC was calculated using the formula: (OD600 DMSO treated well−OD600 peptide treated well)/OD600 DMSO treated well×100%.
The minimum inhibitory concentration (MIC) was determined for selected peptides (P1, P2, P3, and P4) using similar assay as above. Peptides were added to the wells of the 96-well plate at 6 mM, 9 mM, 12 mM, 15 mM, and 18 mM concentrations. The peptide concentration at which there is no visible APEC growth (no OD increase) was determined as MIC. Two independent experiments were conducted.
Arginine and lysine substituted peptide analogues: The non-essential amino acid residues identified in each peptide were substituted with arginine/lysine to test whether these substitutions enhance the anti-APEC activity of peptides. The MICs of arginine and lysine substituted peptide analogues ([…] (SEQ ID NO:37), […] (SEQ ID NO:38), […] (SEQ ID NO:39), KDENK (SEQ ID NO:41), PDEKK (SEQ ID NO:42), KDEKK (SEQ ID NO:43), KHTAPK (SEQ ID NO:45), VKTAPK (SEQ ID NO:46), VHTKPK (SEQ ID NO:47), and KKTKPK (SEQ ID NO:48)) were determined as above and compared with original peptides.

Row | Substance | Growth of Bacteroides thetaiotaomicron (commensal bacteria) | Growth of E. coli Nissle 1917 and E. coli G58-1 (commensal bacteria) | Growth of Gram-positive commensal bacteria (commensal bacteria) | Biofilm embedded ST (Biofilm embedded ST) [Log CFU/ml] | Biofilm embedded SE (Biofilm embedded SE) [Log CFU/mL] | MIC against ST [1] [mM] | MIC (APEC O78) [mM] | MIC50 (APEC O78) [mM] | MIC (APEC O78; 100% APEC growth inhibition) [mM]
1 | MLNERVK [Peptide P4, MLNERVK] | no inhibition | inhibited | No growth inhibition | 0.00 ± 0.00 | 0.00 ± 0.00 | 18 | > 18 | 20.0 | –
2 | PDENK [Peptide P2, PDENK] | no inhibition | inhibited | No growth inhibition | 0.00 ± 0.00 | 0.00 ± 0.00 | 15 | – | 9.5 | 12
